These results are taken from US4198421A, “Antiinflammatory 2-substituted-dibenzo[2,3:6,7]oxepino[4,5-d]imidazoles” (E. I. Du Pont de Nemours and Company, priority 1978, dated 1980).

In the test the test system is adjuvant-induced arthritis. The test can be described thus: Established Adjuvant-Induced Arthritis in Rats (A.A.). Particulars: Rattus norvegicus, 168 h, read-out: A. A. ED50%. It counts as in vivo, Charles River Lewis male rats.
[1] abbreviates: ED50% decrease from control paw volume (uninjected, left hind paw), established adjuvant-induced arthritis, oral gavage daily, 7 days, read by visual fit.

Where two headings read alike, the source gives them in different places.

As usually defined, the ED50 is the dose at which the effect has come halfway, by size or by number of responders. `COc1ccc2c(c1)c(CC(=O)O)c(C)n2C(=O)c1ccc(Cl)cc1` [Indomethacin, indomethacin]: the ED50 (po) was 0.3 mg/kg.

Take `CC(C)Cc1ccc(C(C)C(=O)O)cc1` (centres unmarked) [Ibuprofen, ibuprofen]: under setting [1], the median effective dose (ED50) is 100 mg/kg.

In the case of `O=S(=O)(c1nc2c([nH]1)-c1ccc(F)cc1Oc1ccccc1-2)C(F)(F)C(F)F` [Example 2, 10-Fluoro-2-[(1,1,2,2-tetrafluoroethyl)sulfonyl]-1H-dibenzo[2,3:6,7]oxepino[4,5-d]imidazole], under setting [1], the ED50 turned out to be 4.5 mg/kg.

In the case of `Fc1ccc2c(c1)Oc1ccccc1-c1nc(SC(F)(F)C(F)F)[nH]c1-2` [1 (k), 10-Fluoro-2-[(1,1,2,2-tetrafluoroethyl)thio]-1H-dibenzo[2,3:6,7]oxepino[4,5-d]imidazole], under setting [1], the 50% effective dose (ED50) is below 27 mg/kg.

Take `CCCCC1C(=O)N(c2ccccc2)N(c2ccccc2)C1=O` [Phenylbutazone, phenylbutazone]: the ED50 under setting [1] was 10 mg/kg.
